Where a SMILES comes first, the peptide text is derived from it. Bridges are numbered along the chain shown (N, C = ends). [ ]: non-standard residue; d: D form. 2Nal = N[C@@H](Cc1ccc2ccccc2c1)C(=O)O; NMeR = CN[C@@H](CCCNC(=N)N)C(=O)O; NMeE = CN[C@@H](CCC(=O)O)C(=O)O; NMeQ = CN[C@@H](CCC(N)=O)C(=O)O; Cha = N[C@@H](CC1CCCCC1)C(=O)O; Cba = N[C@@H](CC1CCC1)C(=O)O; S5 = C=CCCC[C@](C)(N)C(=O)O; βAla = NCCC(=O)O

This assay concerns Colo320DM. Nature of the assay: Colo320DM cell viability. The format is cell-based, human. An excerpt: In some embodiments, a polypeptide described herein inhibits binding of BLC9 to β-catenin when assessed in a cell-viability assay. In some embodiments, the cell-viability assay is a CellTiterGlo luminescent assay, wherein the viability of cells is quantitatively measured. Various cell lines, transformed cell lines or primary cells derived from a healthy subject or subject suffering from a disease can be used in this assay.
What is called IC50 is the concentration that gives 50% inhibition. A higher IC50 goes with weaker potency in that assay. Take `CC[C@H](C)[C@@H]1NC(=O)[C@@](C)(NC(=O)[C@H](CCCNC(=N)N)NC(=O)[C@H](CC(C)C)NC(=O)[C@@H](NC(=O)[C@H](CCC(N)=O)NC(=O)[C@H](CC(C)C)NC(=O)[C@H](CO)NC(=O)[C@H](CCCNC(=N)N)NC(=O)[C@H](CCC(=O)O)NC(=O)[C@H](CCCNC(=N)N)NC(=O)[C@H](Cc2c[nH]cn2)NC(C)=O)[C@@H](C)O)CCCC=CCCC[C@@](C)(C(=O)N[C@@H](CC2CCC2)C(=O)N[C@@H](Cc2ccc3ccccc3c2)C(N)=O)NC(=O)[C@H](C)NC(=O)[C@H](CCC(N)=O)NC1=O` [SEQ ID NO: 29, HRERSLQTLRXIQAX(CBA)(2-Nal)] (Ac-HRERSLQTLR[S5]IQA[S5][Cba][2Nal]-NH2; staple 11-15): the half-maximal inhibitory concentration (IC50) turned out to be 2.68 µM.

With `CC[C@H](C)[C@@H]1NC(=O)[C@@](C)(NC(=O)[C@H](CCCNC(=N)N)NC(=O)[C@H](CC(C)C)NC(=O)[C@]2(C)CCCC=CCCC[C@](C)(NC(=O)[C@H](CCC(=O)O)NC(=O)[C@H](CCCNC(=N)N)NC(C)=O)C(=O)N[C@@H](CO)C(=O)N[C@@H](CC(C)C)C(=O)N[C@@H](CCC(N)=O)C(=O)N2)CCCC=CCCC[C@@](C)(C(=O)N[C@@H](CC(C)C)C(=O)N[C@@H](Cc2ccc3ccccc3c2)C(N)=O)NC(=O)[C@H](CCCNC(=N)N)NC(=O)[C@H](CCC(N)=O)NC1=O` [SEQ ID NO: 39, REXSLQXLRZIQRZL(2-Nal)] (Ac-RE[S5]SLQ[S5]LR[S5]IQR[S5]L[2Nal]-NH2; staple 3-7, 10-14), 0.56 µM corresponded to half-maximal inhibition (IC50).

Regarding `CC[C@H](C)[C@@H]1NC(=O)[C@@](C)(NC(=O)[C@H](CCCNC(=N)N)NC(=O)[C@H](CC(C)C)NC(=O)[C@]2(C)CCCC=CCCC[C@](C)(NC(=O)[C@H](CCC(=O)O)NC(=O)[C@H](CCCNC(=N)N)NC(C)=O)C(=O)N[C@@H](CO)C(=O)N[C@@H](CC(C)C)C(=O)N[C@@H](CCC(N)=O)C(=O)N2)CCCC=CCCC[C@@](C)(C(=O)N[C@@H](CC(C)C)C(=O)N[C@@H](Cc2ccc3ccccc3c2)C(=O)NCCC(=O)NCCC(N)=O)NC(=O)[C@H](CCCNC(=N)N)NC(=O)[C@H](CCC(N)=O)NC1=O` [SEQ ID NO: 40, REXSLQXLRZIQRZL(2-Nal)(β-Ala)(β-Ala)] (Ac-RE[S5]SLQ[S5]LR[S5]IQR[S5]L[2Nal][βAla][βAla]-NH2; staple 3-7, 10-14), the IC50 was determined as 0.83 µM.

In the case of `CC[C@H](C)[C@@H]1NC(=O)[C@@](C)(NC(=O)[C@H](CCCNC(=N)N)NC(=O)[C@H](CC(C)C)NC(=O)[C@]2(C)CCCC=CCCC[C@](C)(NC(=O)[C@H](CCC(=O)O)NC(=O)[C@H](CCCNC(=N)N)NC(=O)[C@@H](N)Cc3c[nH]cn3)C(=O)N[C@@H](CO)C(=O)N[C@@H](CC(C)C)C(=O)N[C@@H](CCC(N)=O)C(=O)N2)CCCC=CCCC[C@@](C)(C(=O)N[C@@H](CC2CCC2)C(=O)N[C@@H](Cc2ccc3ccccc3c2)C(=O)O)NC(=O)[C@H](CCCNC(=N)N)NC(=O)[C@H](CCC(N)=O)NC1=O` [SEQ ID NO: 82, HREXSLQXLRZIQRZ(CBA)(2-Nal)] (H-HRE[S5]SLQ[S5]LR[S5]IQR[S5][Cba][2Nal]-OH; staple 4-8, 11-15), the IC50 was greater than 5 µM.

The compound `CC[C@H](C)[C@@H]1NC(=O)[C@@](C)(NC(=O)[C@H](CCCNC(=N)N)NC(=O)[C@H](CC(C)C)NC(=O)[C@]2(C)CCCC=CCCC[C@](C)(NC(=O)[C@H](CCCNC(=N)N)NC(=O)[C@H](CCC(N)=O)NC(=O)[C@H](CCCNC(=N)N)NC(=O)[C@H](Cc3c[nH]cn3)NC(C)=O)C(=O)N[C@@H](CC(C)C)C(=O)N[C@@H](CCC(N)=O)C(=O)N2)CCCC=CCCC[C@@](C)(C(=O)N[C@@H](CC2CCC2)C(=O)N[C@@H](Cc2ccc3ccccc3c2)C(N)=O)NC(=O)[C@H](CCCNC(=N)N)NC(=O)[C@H](CCC(N)=O)NC1=O` [SEQ ID NO: 90, HRQRXLQXLRZIQRZ(CBA)(2-Nal)] (Ac-HRQR[S5]LQ[S5]LR[S5]IQR[S5][Cba][2Nal]-NH2; staple 5-8, 11-15) returned an IC50 of 1.83 µM.

Turning to `CC[C@H](C)[C@@H]1NC(=O)[C@@](C)(NC(=O)[C@H](CCCNC(=N)N)NC(=O)[C@H](CC2CCCCC2)NC(=O)[C@]2(C)CCCC=CCCC[C@](C)(NC(=O)[C@H](CCCNC(=N)N)NC(=O)[C@H](CCC(N)=O)NC(=O)[C@H](CCCNC(=N)N)NC(=O)[C@H](Cc3c[nH]cn3)NC(C)=O)C(=O)N[C@@H](CC(C)C)C(=O)N[C@@H](CCC(N)=O)C(=O)N2)CCCC=CCCC[C@@](C)(C(=O)N[C@@H](CC2CCCCC2)C(=O)N[C@@H](Cc2ccc3ccccc3c2)C(N)=O)NC(=O)[C@H](CCCNC(=N)N)NC(=O)[C@H](CCC(N)=O)NC1=O` [SEQ ID NO: 92, HRQRXLQX(Cha)RZIQRZ(Cha)(2-Nal)] (Ac-HRQR[S5]LQ[S5][Cha]R[S5]IQR[S5][Cha][2Nal]-NH2; staple 5-8, 11-15), half-maximal inhibition (IC50) was put at 2.54 µM.

Compound `CC[C@H](C)[C@@H]1NC(=O)[C@@](C)(NC(=O)[C@H](CCCNC(=N)N)NC(=O)[C@H](CC(C)C)NC(=O)[C@@H](NC(=O)[C@]2(C)CCCC=CCCC[C@](C)(NC(=O)[C@H](CCCNC(=N)N)NC(=O)[C@H](Cc3c[nH]cn3)NC(C)=O)C(=O)N[C@@H](CCCNC(=N)N)C(=O)N[C@@H](CO)C(=O)N[C@@H](CC(C)C)C(=O)N2)[C@@H](C)O)CCCC=CCCC[C@@](C)(C(=O)N[C@@H](CC2CCC2)C(=O)N[C@@H](Cc2ccc3ccccc3c2)C(N)=O)NC(=O)[C@H](CCCNC(=N)N)NC(=O)[C@H](CCC(N)=O)NC1=O` [SEQ ID NO: 94, HRXRSLXTLRZIQRZ(CBA)(2-Nal)] (Ac-HR[S5]RSL[S5]TLR[S5]IQR[S5][Cba][2Nal]-NH2; staple 3-7, 11-15) had a half-maximal inhibitory concentration (IC50) of 3.34 µM.

`CC[C@H](C)[C@@H]1NC(=O)[C@@](C)(NC(=O)[C@H](CCCNC(=N)N)NC(=O)[C@H](CC(C)C)NC(=O)[C@@H](NC(=O)[C@H](CCC(N)=O)NC(=O)[C@H](CC(C)C)NC(C)=O)[C@@H](C)O)CCCC=CCCC[C@@](C)(C(=O)N[C@@H](CC2CCC2)C(=O)N[C@@H](Cc2ccc3ccccc3c2)C(N)=O)NC(=O)[C@H](CCCNC(=N)N)NC(=O)[C@H](CCC(N)=O)NC1=O` [SEQ ID NO: 107, LQTLRXIQRX(CBA)(2-Nal)] (Ac-LQTLR[S5]IQR[S5][Cba][2Nal]-NH2; staple 6-10) returned an IC50 greater than 5 µM.

For `CC[C@H](C)[C@@H]1NC(=O)[C@@](C)(NC(=O)[C@H](CCCNC(=N)N)NC(=O)[C@H](CC(C)C)NC(=O)[C@@H](NC(=O)[C@H](CCC(=O)O)NC(=O)[C@H](CC(C)C)NC(C)=O)[C@@H](C)O)CCCC=CCCC[C@@](C)(C(=O)N[C@@H](CC2CCC2)C(=O)N[C@@H](Cc2ccc3ccccc3c2)C(N)=O)NC(=O)[C@H](CCCNC(=N)N)NC(=O)[C@H](CCC(N)=O)NC1=O` [SEQ ID NO: 109, LETLRXIQRX(CBA)(2-Nal)] (Ac-LETLR[S5]IQR[S5][Cba][2Nal]-NH2; staple 6-10), the concentration for half-maximal inhibition (IC50) was greater than 5 µM.

`CC[C@H](C)[C@@H]1NC(=O)[C@@](C)(NC(=O)[C@H](CCCNC(=N)N)NC(=O)[C@H](CC(C)C)NC(=O)[C@@H](NC(=O)[C@H](CCC(N)=O)NC(=O)[C@H](CC(C)C)NC(=O)[C@H](CO)NC(=O)[C@H](CCCNC(=N)N)NC(=O)[C@H](CCC(=O)O)NC(=O)[C@H](CCCNC(=N)N)NC(=O)[C@H](Cc2c[nH]cn2)NC(C)=O)[C@@H](C)O)CCCC=CCCC[C@@](C)(C(=O)N[C@@H](CC2CCC2)C(=O)N[C@@H](Cc2ccc3ccccc3c2)C(N)=O)NC(=O)[C@H](CCC(N)=O)NC(=O)[C@H](CCC(N)=O)NC1=O` [SEQ ID NO: 145, HRERSLQTLRXIQQX(CBA)(2-Nal)] (Ac-HRERSLQTLR[S5]IQQ[S5][Cba][2Nal]-NH2; staple 11-15) had an IC50 greater than 5 µM.

With `CC[C@H](C)[C@@H]1NC(=O)[C@@](C)(NC(=O)[C@H](CCCNC(=N)N)NC(=O)[C@H](CC(C)C)NC(=O)[C@@H](NC(=O)[C@H](CCC(N)=O)NC(=O)[C@H](CC(C)C)NC(=O)[C@H](CO)NC(=O)[C@H](CCCNC(=N)N)NC(=O)[C@H](CCC(=O)O)N(C)C(=O)[C@H](CCCNC(=N)N)NC(=O)[C@H](Cc2c[nH]cn2)NC(C)=O)[C@@H](C)O)CCCC=CCCC[C@@](C)(C(=O)N[C@@H](CC2CCC2)C(=O)N[C@@H](Cc2ccc3ccccc3c2)C(N)=O)NC(=O)[C@H](CCCNC(=N)N)NC(=O)[C@H](CCC(N)=O)NC1=O` [SEQ ID NO: 151, HR(N-methylE)RSLQTLRXIQRX(CBA)(2-Nal)] (Ac-HR[NMeE]RSLQTLR[S5]IQR[S5][Cba][2Nal]-NH2; staple 11-15), the IC50 was found to be 3.1 µM. That is a single-digit micromolar value.

Consider `CC[C@H](C)[C@@H]1NC(=O)[C@@](C)(NC(=O)[C@H](CCCNC(=N)N)N(C)C(=O)[C@H](CC(C)C)NC(=O)[C@@H](NC(=O)[C@H](CCC(N)=O)NC(=O)[C@H](CC(C)C)NC(=O)[C@H](CO)NC(=O)[C@H](CCCNC(=N)N)NC(=O)[C@H](CCC(=O)O)NC(=O)[C@H](CCCNC(=N)N)NC(=O)[C@H](Cc2c[nH]cn2)NC(C)=O)[C@@H](C)O)CCCC=CCCC[C@@](C)(C(=O)N[C@@H](CC2CCC2)C(=O)N[C@@H](Cc2ccc3ccccc3c2)C(=O)O)NC(=O)[C@H](CCCNC(=N)N)NC(=O)[C@H](CCC(N)=O)NC1=O` [SEQ ID NO: 152, HRERSLQTL(N-methylR)XIQRX(CBA)(2-Nal)] (Ac-HRERSLQTL[NMeR][S5]IQR[S5][Cba][2Nal]-OH; staple 11-15), for which the IC50 is greater than 5 µM.

`CC[C@H](C)[C@@H]1NC(=O)[C@@](C)(NC(=O)[C@H](CCCNC(=N)N)NC(=O)[C@H](CC(C)C)NC(=O)[C@@H](NC(=O)[C@H](CCC(N)=O)N(C)C(=O)[C@H](CC(C)C)NC(=O)[C@H](CO)NC(=O)[C@H](CCCNC(=N)N)NC(=O)[C@H](CCC(N)=O)NC(=O)[C@H](CCCNC(=N)N)NC(=O)[C@H](Cc2c[nH]cn2)NC(C)=O)[C@@H](C)O)CCCC=CCCC[C@@](C)(C(=O)N[C@@H](CC2CCC2)C(=O)N[C@@H](Cc2ccc3ccccc3c2)C(N)=O)NC(=O)[C@H](CCCNC(=N)N)NC(=O)[C@H](CCC(N)=O)NC1=O` [SEQ ID NO: 153, HRQRSL(N-methylQ)TLRXIQRX(CBA)(2-Nal)] (Ac-HRQRSL[NMeQ]TLR[S5]IQR[S5][Cba][2Nal]-NH2; staple 11-15; N-terminus and C-terminus assumed) came in with an IC50 of 2.56 µM.

Source of the values: patent US11591365B2, “BCL9 peptides and variants thereof” (WntRx Pharmaceuticals Inc., priority 2017, dated 2023).
